For the assay, the target named is T1, ATM protein immunoprecipitated from HeLa cell nuclear extract (Homo sapiens, UniProt Q13315).
T1 construct: ATM protein was immunoprecipitated from HeLa cell nuclear extract; endogenous in cells; host or cells: HeLa cell nuclear extract (immunoprecipitated with rabbit polyclonal anti-ATM antiserum)
As to the kind of experiment: In vitro ATM inhibition assay (phosphorylation of GSTp53N66 on serine 15, chemiluminescent detection). Also: tested normally from 100 µM down to 0.1 nM. Format: biochemical. The settings on record: read-out: IC50 values (the concentration at which 50% of the enzyme activity is inhibited), ATM inhibition. Here is the method:
In order to assess the inhibitory action of the compounds against ATM in vitro, the following assay was used to determine IC50 values. ATM protein was immunoprecipitated from HeLa cell nuclear extract using rabbit polyclonal anti-sera raised to the C-terminal ˜500 amino-acid residues of the human ATM protein. […] 10 μl of immunoprecipitated ATM in Buffer C (50 mM Hepes, pH 7.4, 6 mM MgCl2, 150 mM NaCl, 0.1 mM sodium orthovanadate, 4 mM MnCl2, 0.1 mM dithiothreitol, 10% glycerol) was added to 32.5 μl of buffer C containing 1 μg of the ATM substrate GSTp53N66 in a V-bottomed 96 well polypropylene plate. The GSTp53N66 substrate is the amino terminal 66 amino acid residues of human wild type p53 fused to glutathione S-transferase. […] Varying concentrations of inhibitor were then added. […] After 10 minutes of incubation at 37° C., the reactions were initiated by the addition of 5 μl of 500 μM Na-ATP. After 1 hour with shaking at 37° C., 150 μl of phosphate buffered saline (PBS) was added to the reaction and the plate centrifuged at 1500 rpm for 10 minutes. 5 μl of the reaction was then transferred to a 96 well opaque white plate containing 45 μl of PBS to allow the GSTp53N66 substrate to bind to the plate wells. The plate was covered and incubated at room temperature for 1 hour with shaking before discarding the contents. The plate wells were washed twice by the addition of PBS prior to the addition of 3% (w/v) bovine serum albumin (BSA) in PBS. The plate was incubated at room temperature for 1 hour with shaking before discarding the contents and washing twice with PBS. To the wells, 50 μl of a 1:10,000 dilution of primary phosphoserine-15 antibody (Cell Signaling Technology, #9284L) in 3% BSA/PBS was added to detect the phosphorylation event on the serine 15 residue of p53 elicited by the ATM kinase. […] The wells were then washed four times with PBS before the addition of chemiluminescence reagent (NEN Renaissance, NEL105). The plate was then shaken briefly, covered with a transparent plate seal and transferred to a TopCount NXT for chemiluminescent counting. Counts per second, following a one second counting time, were recorded for each reaction.
The enzyme activity for each compound is then calculated using the following equation:
[formula] Results In vitro ATM assays
Compounds were assayed for ATM inhibition activity using the method described above. […] These are determined over a range of different concentrations, normally from 100 μM down to 0.1 nM. Such IC50 values are used as comparative values to identify increased compound potencies.

T1 sequence (Q13315 whole entry): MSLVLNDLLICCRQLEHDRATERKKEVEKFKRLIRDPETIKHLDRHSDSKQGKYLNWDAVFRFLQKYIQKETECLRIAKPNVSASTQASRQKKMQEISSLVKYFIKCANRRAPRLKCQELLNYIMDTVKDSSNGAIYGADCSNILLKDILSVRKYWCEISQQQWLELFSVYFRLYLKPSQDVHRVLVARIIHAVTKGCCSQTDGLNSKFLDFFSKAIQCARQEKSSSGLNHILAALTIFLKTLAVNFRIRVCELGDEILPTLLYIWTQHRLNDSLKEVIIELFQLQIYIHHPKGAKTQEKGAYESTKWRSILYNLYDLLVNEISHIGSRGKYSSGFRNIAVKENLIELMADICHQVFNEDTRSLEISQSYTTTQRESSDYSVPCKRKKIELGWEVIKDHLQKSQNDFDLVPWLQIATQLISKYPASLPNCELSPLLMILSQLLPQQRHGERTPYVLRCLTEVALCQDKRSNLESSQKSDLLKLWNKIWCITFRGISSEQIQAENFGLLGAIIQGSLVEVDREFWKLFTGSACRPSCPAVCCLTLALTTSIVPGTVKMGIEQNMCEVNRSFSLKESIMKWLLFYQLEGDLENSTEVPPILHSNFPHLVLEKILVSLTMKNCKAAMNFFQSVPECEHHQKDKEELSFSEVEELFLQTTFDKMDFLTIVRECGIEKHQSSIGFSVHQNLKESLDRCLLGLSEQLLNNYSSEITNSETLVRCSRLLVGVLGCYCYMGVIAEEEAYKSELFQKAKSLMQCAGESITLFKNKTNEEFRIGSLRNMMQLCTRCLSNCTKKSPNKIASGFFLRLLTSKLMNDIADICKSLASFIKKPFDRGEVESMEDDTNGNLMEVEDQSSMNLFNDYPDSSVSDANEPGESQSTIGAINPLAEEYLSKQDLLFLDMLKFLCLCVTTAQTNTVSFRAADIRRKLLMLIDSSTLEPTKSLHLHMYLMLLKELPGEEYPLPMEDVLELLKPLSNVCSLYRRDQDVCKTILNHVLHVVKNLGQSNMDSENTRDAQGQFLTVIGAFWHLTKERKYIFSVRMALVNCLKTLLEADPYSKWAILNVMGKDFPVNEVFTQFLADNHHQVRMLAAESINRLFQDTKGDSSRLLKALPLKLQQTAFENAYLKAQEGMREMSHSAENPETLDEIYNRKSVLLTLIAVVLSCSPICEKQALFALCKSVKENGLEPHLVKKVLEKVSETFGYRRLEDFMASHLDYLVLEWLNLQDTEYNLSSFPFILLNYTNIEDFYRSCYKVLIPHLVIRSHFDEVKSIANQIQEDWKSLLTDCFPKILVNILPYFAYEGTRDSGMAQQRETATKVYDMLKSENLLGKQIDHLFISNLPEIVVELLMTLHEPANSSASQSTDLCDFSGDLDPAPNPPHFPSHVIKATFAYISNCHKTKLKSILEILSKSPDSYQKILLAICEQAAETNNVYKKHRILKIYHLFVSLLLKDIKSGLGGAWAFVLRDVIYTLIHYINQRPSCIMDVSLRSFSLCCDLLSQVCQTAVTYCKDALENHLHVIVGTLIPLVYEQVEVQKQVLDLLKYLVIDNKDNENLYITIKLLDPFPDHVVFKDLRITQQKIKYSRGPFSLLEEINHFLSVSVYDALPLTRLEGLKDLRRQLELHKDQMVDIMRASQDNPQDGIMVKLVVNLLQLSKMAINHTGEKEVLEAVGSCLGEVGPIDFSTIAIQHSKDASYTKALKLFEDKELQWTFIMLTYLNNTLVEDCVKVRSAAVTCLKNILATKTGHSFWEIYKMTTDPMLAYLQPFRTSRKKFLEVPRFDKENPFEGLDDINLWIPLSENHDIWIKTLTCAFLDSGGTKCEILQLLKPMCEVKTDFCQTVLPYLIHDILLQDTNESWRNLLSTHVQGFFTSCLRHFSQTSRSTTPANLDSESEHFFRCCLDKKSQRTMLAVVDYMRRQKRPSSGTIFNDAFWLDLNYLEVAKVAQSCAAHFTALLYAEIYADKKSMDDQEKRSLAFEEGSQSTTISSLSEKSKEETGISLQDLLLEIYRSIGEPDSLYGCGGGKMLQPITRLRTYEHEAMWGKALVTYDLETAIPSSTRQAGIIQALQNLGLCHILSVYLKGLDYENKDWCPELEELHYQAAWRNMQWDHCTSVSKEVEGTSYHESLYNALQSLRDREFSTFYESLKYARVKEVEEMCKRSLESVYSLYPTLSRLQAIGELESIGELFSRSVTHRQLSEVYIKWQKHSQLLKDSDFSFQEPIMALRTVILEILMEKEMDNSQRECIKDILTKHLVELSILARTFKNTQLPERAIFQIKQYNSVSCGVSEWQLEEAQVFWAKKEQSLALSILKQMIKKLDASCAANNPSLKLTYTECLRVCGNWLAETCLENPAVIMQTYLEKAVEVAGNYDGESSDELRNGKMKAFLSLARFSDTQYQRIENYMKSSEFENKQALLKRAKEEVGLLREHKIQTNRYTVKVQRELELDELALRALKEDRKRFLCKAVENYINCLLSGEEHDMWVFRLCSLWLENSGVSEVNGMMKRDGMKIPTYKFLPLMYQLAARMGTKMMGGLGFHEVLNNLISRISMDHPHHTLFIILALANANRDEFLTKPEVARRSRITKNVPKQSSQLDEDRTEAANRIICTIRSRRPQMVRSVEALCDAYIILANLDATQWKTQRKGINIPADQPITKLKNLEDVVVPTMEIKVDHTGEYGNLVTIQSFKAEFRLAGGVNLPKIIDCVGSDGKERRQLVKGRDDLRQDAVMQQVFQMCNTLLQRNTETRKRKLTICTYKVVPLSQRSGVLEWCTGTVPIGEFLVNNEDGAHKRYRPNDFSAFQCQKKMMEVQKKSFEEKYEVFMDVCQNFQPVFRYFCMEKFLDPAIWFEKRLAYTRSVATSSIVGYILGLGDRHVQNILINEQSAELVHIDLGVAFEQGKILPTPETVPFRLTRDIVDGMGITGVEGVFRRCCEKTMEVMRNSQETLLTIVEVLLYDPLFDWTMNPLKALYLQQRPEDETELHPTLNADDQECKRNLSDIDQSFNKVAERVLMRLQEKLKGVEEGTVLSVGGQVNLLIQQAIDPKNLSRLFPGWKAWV

Regarding `CCN(CC)CCCN1c2ccccc2Sc2c(-c3cc(=O)cc(N4CCOCC4)o3)cccc21` [Compound 244], the IC50 is less than 200 nM.

Regarding `NCCNCC(=O)Nc1ccc2c(c1)Sc1cccc(-c3cc(=O)cc(N4CCOCC4)o3)c1S2` [Compound 58], the IC50 is less than 200 nM.

Consider `O=C(CN1CCN(c2ccccn2)CC1)Nc1ccc2c(c1)Sc1cccc(-c3cc(=O)cc(N4CCOCC4)o3)c1S2` [Compound 82], for which the IC50 is less than 200 nM.

Regarding `COc1ccc(CNCCC(=O)Nc2ccc3c(c2)Sc2cccc(-c4cc(=O)cc(N5CCOCC5)o4)c2S3)cc1` [Compound 103], the IC50 is less than 200 nM.

Turning to `COc1cc(C(=O)Nc2ccc3c(c2)Sc2cccc(-c4cc(=O)cc(N5CCOCC5)o4)c2S3)cc(OC)c1OC` [Compound 40], the IC50 was less than 200 nM.

Consider `C[C@@H]1CN(C(=O)COc2ccc3c(c2)Sc2cccc(-c4cc(=O)cc(N5CCOCC5)o4)c2S3)C[C@H](C)O1` [Compound 433], for which the IC50 is less than 200 nM.

As to `COC(=O)CCC(=O)Nc1ccc2c(c1)Sc1cccc(-c3cc(=O)cc(N4CCOCC4)o3)c1S2` [Compound 41], the IC50 was less than 200 nM.

In the case of `CCOC(=O)CN1CCN(CCCN2c3ccccc3Sc3c(-c4cc(=O)cc(N5CCOCC5)o4)cccc32)CC1=O` [Compound 299], the IC50 was less than 200 nM.

As to `O=c1cc(-c2cccc3c2Sc2ccc(OCCNCc4ccncc4)cc2S3)oc(N2CCOCC2)c1` [Compound 366], the IC50 was less than 200 nM.

On to `O=C(CCNCC1CCCO1)Nc1ccc2c(c1)Sc1cccc(-c3cc(=O)cc(N4CCOCC4)o3)c1S2` (stereo not shown) [Compound 107], for which the IC50 was less than 200 nM.

For `O=c1cc(-c2cccc3c2Sc2ccc(S(=O)(=O)Nc4cccnc4)cc2C3)oc(N2CCOCC2)c1` [Compound 472], the IC50 is less than 200 nM.

`O=c1cc(-c2cccc3c2Sc2ccccc2N3CCCN2CCNCC2)oc(N2CCOCC2)c1` [Compound 303]: the IC50 is less than 200 nM.

As to `O=C(CCN1CCOCC1)Nc1ccc2c(c1)Sc1cccc(-c3cc(=O)cc(N4CCOCC4)o3)c1S2` [Compound 91], the IC50 was less than 200 nM.

As to `CC(=O)OC(C(=O)Nc1ccc2c(c1)Sc1cccc(-c3cc(=O)cc(N4CCOCC4)o3)c1S2)c1ccccc1` (stereo not shown) [Compound 43], the IC50 is less than 200 nM.

Consider `O=C(CN1CCCNCC1)Nc1ccc2c(c1)Sc1cccc(-c3cc(=O)cc(N4CCOCC4)o3)c1S2` [Compound 61], for which the IC50 is less than 200 nM.

`CN(C)CCN1CCN(CCCN2c3ccccc3Sc3c(-c4cc(=O)cc(N5CCOCC5)o4)cccc32)CC1` [Compound 304]: the IC50 is less than 200 nM.

Take `O=c1cc(-c2ccc(OCCNN3CCOCC3)c3c2Sc2ccccc2S3)oc(N2CCOCC2)c1` [Compound 153]: the IC50 was less than 200 nM.

Consider `CC(C)NC(=O)CN1CCN(CC(=O)Nc2ccc3c(c2)Cc2cccc(-c4cc(=O)cc(N5CCOCC5)o4)c2S3)CC1` [Compound 346], for which the IC50 was less than 200 nM.

For the molecule `Cn1nc(O)cc1C(=O)Nc1ccc2c(c1)Sc1cccc(-c3cc(=O)cc(N4CCOCC4)o3)c1S2` [Compound 37], the IC50 was less than 200 nM.

For `O=C(CCNCCCN1CCOCC1)Nc1ccc2c(c1)Sc1cccc(-c3cc(=O)cc(N4CCOCC4)o3)c1S2` [Compound 102], the IC50 was less than 200 nM.

Take `O=C(CCN1CCN(CCOCCO)CC1)Nc1ccc2c(c1)Sc1cccc(-c3cc(=O)cc(N4CCOCC4)o3)c1S2` [Compound 117]: the IC50 is less than 200 nM.

For `O=c1cc(-c2cccc3c2Sc2ccc(S(=O)(=O)N4CCCCC4)cc2C3)oc(N2CCOCC2)c1` [Compound 485], the IC50 was less than 200 nM.

In the case of `O=C(CN(CCO)CCO)Nc1ccc2c(c1)Sc1cccc(-c3cc(=O)cc(N4CCOCC4)o3)c1S2` [Compound 55], the IC50 was less than 200 nM.

On to `Cc1ccccc1N1CCN(CCCN2c3ccccc3Sc3c(-c4cc(=O)cc(N5CCOCC5)o4)cccc32)CC1` [Compound 289], for which the IC50 was less than 200 nM.

`O=C(CCN1CCN(c2ccc(F)cc2)CC1)Nc1ccc2c(c1)Cc1cccc(-c3cc(=O)cc(N4CCOCC4)o3)c1S2` [Compound 354]: the IC50 was less than 200 nM.

With `CN(C)CCN1CCN(CCC(=O)Nc2ccc3c(c2)Cc2cccc(-c4cc(=O)cc(N5CCOCC5)o4)c2S3)CC1` [Compound 356], the IC50 was less than 200 nM.

Take `O=c1cc(-c2cccc3c2Sc2ccc(S(=O)(=O)NC(CO)CO)cc2C3)oc(N2CCOCC2)c1` [Compound 466]: the IC50 is less than 200 nM.

Consider `CN(C)CCC(=O)Nc1ccc2c(c1)Sc1cccc(-c3cc(=O)cc(N4CCOCC4)o3)c1S2` [Compound 108], for which the IC50 is less than 200 nM.

On to `CN1CCCN(C(=O)COc2ccc3c(c2)Sc2cccc(-c4cc(=O)cc(N5CCOCC5)o4)c2S3)CC1` [Compound 442], for which the IC50 is less than 200 nM.

Turning to `O=C(CCN1CCN(c2ccccn2)CC1)Nc1ccc2c(c1)Sc1cccc(-c3cc(=O)cc(N4CCOCC4)o3)c1S2` [Compound 120], the IC50 was less than 200 nM.

Turning to `O=C(Nc1ccc2c(c1)Sc1cccc(-c3cc(=O)cc(N4CCOCC4)o3)c1S2)c1cccnc1` [Compound 28], the IC50 was less than 200 nM.

In the case of `CC(=O)N1CCN(CC(=O)Nc2ccc3c(c2)Cc2cccc(-c4cc(=O)cc(N5CCOCC5)o4)c2S3)CC1` [Compound 338], the IC50 is less than 200 nM.

In the case of `CC(C)(C)OC(=O)N1CCN(CCCN2c3ccccc3Sc3c(-c4cc(=O)cc(N5CCOCC5)o4)cccc32)CC1` [Compound 298], the IC50 was less than 200 nM.

`O=C(CN1CCN(CCOCCO)CC1)Nc1ccc2c(c1)Sc1cccc(-c3cc(=O)cc(N4CCOCC4)o3)c1S2` [Compound 79]: the IC50 was less than 200 nM.

For `O=C(CN1CCCCCC1)Nc1ccc2c(c1)Sc1cccc(-c3cc(=O)cc(N4CCOCC4)o3)c1S2` [Compound 62], the IC50 was less than 200 nM.

With `CC(=O)OCC(=O)Nc1ccc2c(c1)Sc1cccc(-c3cc(=O)cc(N4CCOCC4)o3)c1S2` [Compound 42], the IC50 is less than 200 nM.

Take `O=C(CCNCc1ccncc1)Nc1ccc2c(c1)Sc1cccc(-c3cc(=O)cc(N4CCOCC4)o3)c1S2` [Compound 110]: the IC50 is less than 200 nM.

On to `O=c1cc(-c2cccc3c2Sc2ccccc2N3CCCNCCN2CCN(Cc3ccccc3)CC2)oc(N2CCOCC2)c1` [Compound 274], for which the IC50 was less than 200 nM.

On to `O=C(c1ccc2c(c1)Sc1cccc(-c3cc(=O)cc(N4CCOCC4)o3)c1S2)N1CCN(C(=O)c2ccco2)CC1` [Compound 18], for which the IC50 is less than 200 nM.

For `CN(C)CCN(CCCN1c2ccccc2Sc2c(-c3cc(=O)cc(N4CCOCC4)o3)cccc21)Cc1ccccc1` [Compound 281], the IC50 is less than 200 nM.

As to `O=C(CCCCC1SC[C@@H]2NC(=O)N[C@H]12)NCCCCCC(=O)NCCNCCCN1c2ccccc2Sc2c(-c3cc(=O)cc(N4CCOCC4)o3)cccc21` (stereo partly shown) [Compound 336], the IC50 is less than 200 nM.

For `O=C(CN1CCN(c2ccc(F)cc2)CC1)Nc1ccc2c(c1)Sc1cccc(-c3cc(=O)cc(N4CCOCC4)o3)c1S2` [Compound 83], the IC50 is less than 200 nM.

As for `CC(=O)N1CCN(CCOc2ccc3c(c2)Sc2cccc(-c4cc(=O)cc(N5CCOCC5)o4)c2S3)CC1` [Compound 378], the IC50 is less than 200 nM.

On to `CCN1CCN(S(=O)(=O)c2ccc3c(c2)Cc2cccc(-c4cc(=O)cc(N5CCOCC5)o4)c2S3)CC1` [Compound 482], for which the IC50 is less than 200 nM.

For `O=C(CCNCCN1CCCCC1)Nc1ccc2c(c1)Sc1cccc(-c3cc(=O)cc(N4CCOCC4)o3)c1S2` [Compound 127], the IC50 is less than 200 nM.

Turning to `O=c1cc(-c2cccc3c2Sc2ccccc2N3CCCNCC2CCCCCC2O)oc(N2CCOCC2)c1` (stereo not shown) [Compound 326], the IC50 was less than 200 nM.

On to `CC(C)N1CCN(CCC(=O)Nc2ccc3c(c2)Cc2cccc(-c4cc(=O)cc(N5CCOCC5)o4)c2S3)CC1` [Compound 351], for which the IC50 is less than 200 nM.

In the case of `COCCN1CCN(CC(=O)Nc2ccc3c(c2)Cc2cccc(-c4cc(=O)cc(N5CCOCC5)o4)c2S3)CC1` [Compound 339], the IC50 is less than 200 nM.

Take `NC(=O)CNCCC(=O)Nc1ccc2c(c1)Sc1cccc(-c3cc(=O)cc(N4CCOCC4)o3)c1S2` [Compound 125]: the IC50 was less than 200 nM.

On to `CC(C)NC(=O)CN1CCN(CCC(=O)Nc2ccc3c(c2)Sc2cccc(-c4cc(=O)cc(N5CCOCC5)o4)c2S3)CC1` [Compound 123], for which the IC50 is less than 200 nM.

Take `O=C(CNCc1ccncc1)Nc1ccc2c(c1)Sc1cccc(-c3cc(=O)cc(N4CCOCC4)o3)c1S2` [Compound 71]: the IC50 was less than 200 nM.

In the case of `NC(=O)C1CCN(C(=O)COc2ccc3c(c2)Sc2cccc(-c4cc(=O)cc(N5CCOCC5)o4)c2S3)CC1` [Compound 416], the IC50 was less than 200 nM.

(Values after US7429660B2, “ATM inhibitors” (Kudos Pharmaceuticals Limited, priority 2003, dated 2008).)
